Marks after values point to notes of the source that are not given here.
Legend:
human V2 receptor = biological target: T1, human V2 receptor (Homo sapiens, UniProt P30518); assay: In vitro recombinant vasopressin receptor binding assay (3H-arginine vasopressin displacement), V2; conditions: cloned human V2 receptor membranes, HEK-293 cells
T1 construct: expressed in transfected cells; host or cells: HEK-293
Procedure: (§1) In Vitro Recombinant Vasopressin Receptor Binding Assay
(§2) Compounds were assessed for their ability to displace ^3H-arginine vasopressin from the human V1a or V2 receptor in HEK-293 cells. Assay buffer is 50 mM Tris-Cl, 5 mM MgCl2, 0.1% BSA (pH 7.5) containing 5 μg/mL of aprotinin, leupeptin, pepstatin, 50 μg/mL bacitracin, and 1 mM Pefabloc. ^3H-vasopressin is ^3H-arginine-8-vasopressin (68.5 Ci/mmol, final concentration in assay is 0.65-0.75 nM). Into wells of 96-well round bottom polypropylene plates were added buffer, test compound, membrane (containing cloned human V1a or V2 receptor) and ^3H-vasopressin. The reaction plates were allowed to sit at room temperature for one hour. The samples were filtered through Unifilter GF/C plates (presoaked in 0.3 polyethyleneimine). The plates were washed 5 times with cold physiological saline containing 0.05% Tween 20. After drying, the bottom of the filter plates were sealed and 0.025 mL of Microscint-20 was added to each filter. The top of the plate was sealed, and the plate was counted.

human V1a receptor = biological target: T2, human V1a receptor (Homo sapiens, UniProt P37288); assay: In vitro recombinant vasopressin receptor binding assay (3H-arginine vasopressin displacement), V1a; conditions: cloned human V1a receptor membranes, HEK-293 cells
T2 construct: expressed in transfected cells; host or cells: HEK-293
T2 sequence (P37288 whole entry): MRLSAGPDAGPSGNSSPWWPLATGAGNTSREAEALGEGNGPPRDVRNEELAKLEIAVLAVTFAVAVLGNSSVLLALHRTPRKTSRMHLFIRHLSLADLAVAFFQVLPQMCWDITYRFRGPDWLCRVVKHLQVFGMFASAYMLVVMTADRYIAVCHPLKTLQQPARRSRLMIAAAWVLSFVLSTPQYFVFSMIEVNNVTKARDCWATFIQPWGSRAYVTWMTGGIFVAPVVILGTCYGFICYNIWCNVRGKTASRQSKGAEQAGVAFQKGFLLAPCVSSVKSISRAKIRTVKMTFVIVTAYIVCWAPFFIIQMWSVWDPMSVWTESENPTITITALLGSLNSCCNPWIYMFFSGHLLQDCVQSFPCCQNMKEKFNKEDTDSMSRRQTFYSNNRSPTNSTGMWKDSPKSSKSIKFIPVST
Procedure: as §1, §2

[1] = system: conscious hydrated male rats; assay: Diuresis study, acute diuretic effect after oral administration; type: in vivo, Sprague Dawley rats; conditions: 4 hours urine collection, mean±SE
Procedure: The acute diuretic effect of compounds of the invention after oral administration was tested according to the procedure described herein.
Mature male Sprague Dawley rats, 200-300 gms, from Charles River Labs Inc. were housed one rat per cage, in a rodent room. Room temperature was maintained at […] and humidity at 30-70%. Room lighting was on a 12 hrs light/12 hrs dark cycle. Rats were fed laboratory rodent diet, #5001 (supplied from Purina Mills, St.Louis, Mo. via W. F. Fisher, Bound Brook, N.J.).
Four different concentrations of test compound were prepared. For each dose, compound was prepared as a uniform suspension in 0.5% methylcellulose vehicle using a water bath sonicator to ensure uniform suspension and dosed in a volume of 2 ml/kg.
All animals were fasted for 18 hours and weights were taken and recorded for each animal. Animals were dosed orally with drug via gavage needle. After oral dosing, animals were placed into metabolism racks for 4 hours. The urine was collected and the volume measured. Aliquots of 0.5 mL were stored at 4° C. for later analysis.
Each value represents the mean±SE. *Data has a p value of <0.05 versus vehicle using Dunnett's Multiple Comparison Test. **Data has a p value of <0.01 versus vehicle. ^aNumber of animals in parentheses represent the number of animals providing osmolality values (if different than the number of animals providing urine volume values).

Row | Molecule | IC50 (human V2 receptor) [nM] | IC50 (human V1a receptor) [nM] | further results
1 | O=C(Nc1ccc(C(=O)N2CC3C4CCC(CC4)N3Cc3ccccc32)c(Cl)c1)c1ccccc1-c1ccccc1 (racemic) [Compound 2, N-[4-[(6,6a,7,8,9,10-hexahydro-7,10-ethanopyrido[2,1-c][1,4]benzodiazepin-5(12H)-yl)carbonyl]-3-chlorophenyl]-[1,1′-biphenyl]-2-carboxamide] | 4 | – | –
2 | O=C(Nc1ccc(C(=O)N2C[C@@H]3C4CCC(C4)N3Cc3ccccc32)c(Cl)c1)c1ccccc1-c1ccccc1 (mixture of isomers) [Compound 3, N-[4-[[(6aS)-6,6a,7,8,9,10-hexahydro-7,10-methanopyrido[2,1-c][1,4]benzodiazepin-5(12H)-yl]carbonyl]-3-chlorophenyl]-[1,1′-biphenyl]-2-carboxamide] | 15 | – | –
3 | O=C(Nc1ccc(C(=O)N2C[C@@H]3C4CCC(C4)N3Cc3ccccc32)c(Cl)c1)c1ccccc1-c1ccccc1 (stereo partly drawn) [Compound 4, N-[4-[[(6aS)-6,6a,7,8,9,10-hexahydro-7,10-methanopyrido[2,1-c][1,4]benzodiazepin-5(12H)-yl]carbonyl]-3-chlorophenyl]-[1,1′-biphenyl]-2-carboxamide] | 4 | 24 | Urine Osmolality ([1]; 0.3 mg/Kg oral): 444 ± 79* mOsm/kg; Urine Volume ([1]; 0.3 mg/Kg oral): 2.5 ± 0.3 mL; Urine Osmolality ([1]; 1.0 mg/Kg oral): 299 ± 34* mOsm/kg; Urine Volume ([1]; 1.0 mg/Kg oral): 6.0 ± 0.7* mL; Urine Osmolality ([1]; 3.0 mg/Kg oral): 180 ± 9* mOsm/kg; Urine Volume ([1]; 3.0 mg/Kg oral): 15.1 ± 1.4* mL; Urine Osmolality ([1]; 10 mg/Kg oral): 138 ± 11* mOsm/kg; Urine Volume ([1]; 10 mg/Kg oral): 29.9 ± 2.0* mL
4 | O=C(Nc1ccc(C(=O)N2C[C@H]3C4CCC(C4)N3Cc3ccccc32)c(Cl)c1)c1ccccc1-c1ccccc1 (stereo partly drawn) [Compound 5, N-[4-[[(6aR)-6,6a,7,8,9,10-hexahydro-7,10-methanopyrido[2,1-c][1,4]benzodiazepin-5(12H)-yl]carbonyl]-3-chlorophenyl]-[1,1′-biphenyl]-2-carboxamide] | 15 | – | Urine Osmolality ([1]; 0.3 mg/Kg oral): 408 ± 37* mOsm/kg; Urine Volume ([1]; 0.3 mg/Kg oral): 1.4 ± 0.1* mL; Urine Osmolality ([1]; 1.0 mg/Kg oral): 303 ± 29* mOsm/kg; Urine Volume ([1]; 1.0 mg/Kg oral): 3.4 ± 0.4* mL; Urine Osmolality ([1]; 3.0 mg/Kg oral): 238 ± 18* mOsm/kg; Urine Volume ([1]; 3.0 mg/Kg oral): 9.4 ± 1.1* mL; Urine Osmolality ([1]; 10 mg/Kg oral): 172 ± 9* mOsm/kg; Urine Volume ([1]; 10 mg/Kg oral): 19.5 ± 1.4* mL
5 | Cc1ccc(-c2ccccc2C(=O)Nc2ccc(C(=O)N3C[C@@H]4C5CCC(C5)N4Cc4cc(Cl)ccc43)cc2)cc1 (stereo partly drawn) [Compound 6, N-[4-[[(6aS)-2-chloro-6,6a,7,8,9,10-hexahydro-7,10-methanopyrido[2,1-c][1,4]benzodiazepin-5(12H)-yl]carbonyl]phenyl]-4′-methyl-[1,1′-biphenyl]-2-carboxamide] | 5 | 24 | Urine Osmolality ([1]; 1.0 mg/Kg oral): 387 ± 15 mOsm/kg; Urine Volume ([1]; 1.0 mg/Kg oral): 2.9 ± 0.2 mL; Urine Osmolality ([1]; 3.0 mg/Kg oral): 226 ± 9** mOsm/kg; Urine Volume ([1]; 3.0 mg/Kg oral): 5.8 ± 0.5** mL; Urine Osmolality ([1]; 10 mg/Kg oral): 159 ± 9** mOsm/kg; Urine Volume ([1]; 10 mg/Kg oral): 17.8 ± 1.3** mL
6 | Cc1ccc(-c2ccccc2C(=O)Nc2ccc(C(=O)N3C[C@@H]4C5CCC(C5)N4Cc4ccccc43)c(Cl)c2)cc1 (stereo partly drawn) [Compound 7, N-[4-[[(6aS)-6,6a,7,8,9,10-hexahydro-7,10-methanopyrido[2,1-c][1,4]benzodiazepin-5(12H)-yl]carbonyl]-3-chlorophenyl]-4′-methyl-[1,1′-biphenyl]-2-carboxamide] | 3 | 35 | –
7 | O=C(Nc1ccc(C(=O)N2C[C@@H]3C4CCC(C4)N3Cc3cc(Cl)ccc32)cc1)c1ccccc1-c1ccc(F)cc1 (stereo partly drawn) [Compound 9, N-[4-[[(6aS)-2-chloro-6,6a,7,8,9,10-hexahydro-7,10-methanopyrido[2,1-c][1,4]benzodiazepin-5(12H)-yl]carbonyl]phenyl]-4′-fluoro-[1,1′-biphenyl]-2-carboxamide] | 26 | 68 | –
8 | O=C(Nc1ccc(C(=O)N2C[C@@H]3C4CCC(C4)N3Cc3cc(Cl)ccc32)cc1)c1ccccc1F (stereo partly drawn) [Compound 10, N-[4-[[(6aS)-2-chloro-6,6a,7,8,9,10-hexahydro-7,10-methanopyrido[2,1-c][1,4]benzodiazepin-5(12H)-yl]carbonyl]phenyl]-2-fluoro-benzamide] | 10 | 5 | –
9 | O=C(Nc1ccc(C(=O)N2C[C@@H]3C4CCC(C4)N3Cc3cc(Cl)ccc32)cc1)c1ccccc1Cl (stereo partly drawn) [Compound 11, N-[4-[[(6aS)-2-chloro-6,6a,7,8,9,10-hexahydro-7,10-methanopyrido[2,1-c][1,4]benzodiazepin-5(12H)-yl]carbonyl]phenyl]-2-chloro-benzamide] | 7 | 4 | –
10 | O=C(Nc1ccc(C(=O)N2C[C@@H]3C4CCC(CC4)N3Cc3ccccc32)c(Cl)c1)c1ccccc1-c1ccccc1 [Compound 13, N-[4-[[(6aS)-6,6a,7,8,9,10-hexahydro-7,10-ethanopyrido[2,1-c][1,4]benzodiazepin-5(12H)-yl]carbonyl]-3-chlorophenyl]-[1,1′-biphenyl]-2-carboxamide] | 24 | – | –
11 | Cc1ccc(F)cc1C(=O)Nc1ccc(C(=O)N2C[C@@H]3C4CCC(CC4)N3Cc3ccccc32)c(Cl)c1 [Compound 14, N-[4-[[(6aS)-6,6a,7,8,9,10-hexahydro-7,10-ethanopyrido[2,1-c][1,4]benzodiazepin-5(12H)-yl]carbonyl]-3-chlorophenyl]-5-fluoro-2-methyl-benzamide] | 19 | – | –
12 | O=C(Nc1ccc(C(=O)N2C[C@@H]3C4CCC(CC4)N3Cc3cc(Cl)ccc32)cc1)c1ccccc1Cl [Compound 15, N-[4-[[(6aS)-2-chloro-6,6a,7,8,9,10-hexahydro-7,10-ethanopyrido[2,1-c][1,4]benzodiazepin-5(12H)-yl]carbonyl]phenyl]-2-chloro-benzamide] | 35 | 13 | –
13 | Cc1ccc(-c2ccccc2C(=O)Nc2ccc(C(=O)N3C[C@@H]4C5CCC(CC5)N4Cc4cc(Cl)ccc43)cc2)cc1 [Compound 16, N-[4-[[(6aS)-2-chloro-6,6a,7,8,9,10-hexahydro-7,10-ethanopyrido[2,1-c][1,4]benzodiazepin-5(12H)-yl]carbonyl]phenyl]-4′-methyl-[1,1′-biphenyl]-2-carboxamide] | 72 | 59 | –
14 | N-[4-[[(6aS)-2-chloro-6,6a,7,8,9,10-hexahydro-7,10-methanopyrido[2,1-c][1,4]benzodiazepin-5(12H)-yl]carbonyl]-3-chlorophenyl]-2-(trifluoromethyl)-benzamide [Compound 12] | 15 | 10 | –
